# Test results published in patent US20060286575A1, “MCL-1 quadruplex nucleic acids and uses thereof” (Cylene Pharmaceuticals, Inc., priority 2005, published 2006).
# Tests used:
# [1] = test system: MCL-1 wildtype quadruplex sequence (MCL-wt); assay: Competition assay (Taq polymerase stop reaction as reporter), competitor MCL-1 wildtype quadruplex; format: binding; conditions: test compound at its IC50 concentration
# Description: (§1) An example of an affinity competition assay, described hereafter, is useful for determining the relative binding affinities of a test molecule between different types of nucleic acid structures, using the ability of the test molecule to bind and stabilize a specific G-quadruplex structure in a Taq polymerase stop reaction utilized as a reporter system.
# (§2) The assay first involves establishing the IC50 of a test molecule in the polymerase arrest assay described above using the fluorescent-labeled oligonucleotide primer. The IC50 concentration is defined as the concentration of test molecule required that yields a 1:1 ratio of quadruplex arrest to full-length product.
# (§3) A competitor nucleic acid sequence is titrated into the reaction such that each individual reaction contains the test compound at it's IC50 concentration and an increasing concentration of competitor nucleic acid (increasing from zero). The competitor nucleic acid, may be a short duplex or single strand oligonucleotide, a plasmid DNA sequence, an RNA sequence, or a nucleic acid sequence capable of forming a secondary structure, such as a G-quadruplex. […] The decrease in quadruplex arrest product, relative to the full-length product is measured as a function of concentration of added competitor nucleic acid. Thus the relative binding affinities to different competitor nucleic acid structures can be determined graphically. […]
# [2] = test system: extended MCL-1 sequence (insert 46); assay: Competition assay (Taq polymerase stop reaction as reporter), competitor extended MCL-1 sequence insert 46; format: binding; conditions: FIG. 2
# Description: as §1, §2, §3
# [3] = test system: extended MCL-1 sequence (insert 58); assay: Competition assay (Taq polymerase stop reaction as reporter), competitor extended MCL-1 sequence insert 58; format: binding; conditions: FIG. 2
# Description: as §1, §2, §3
# [4] = test system: MCL-1 mRNA; assay: MCL-1 mRNA expression in D556 medulloblastoma cells (Affymetrix U133+2.0 gene chip); format: cell-based; conditions: 19 hours
# Method: (§4) FIG. 3 illustrates Mcl-1 mRNA expression levels in medulloblastoma cells treated with CX-3543. The cells were treated at 0.1 and 1 μM CX-3543 for 19 hours, as measured by Affymetrix U133+2.0 47,000 gene chip.
# (§5) D556 medulloblastoma cells were exposed to 1 uM Compound A-1 for 19 hours. […] The level of apoptosis induced in D556 as measured by Annexin V staining was about 5.5-fold higher than in DMSO-treated cells, as compared to about 1.9-fold in DAOY cells. The relative amount of down-regulation of MCL-1 (approximately 14-fold compared to about 3.2-fold) correlates with the relative level of apoptosis induction (about 5.5-fold as compared to about 1.9-fold).
# [5] = test system: MCL-1 mRNA; assay: MCL-1 mRNA expression in DAOY medulloblastoma cells; format: cell-based; conditions: 1 uM, 19 hours
# Method: as §4, §5
# [6] = test system: D556 medulloblastoma cells; assay: Apoptosis induction by Annexin V staining in D556 cells; format: cell-based
# Method: (§6) FIG. 4 depicts the induction of apoptosis following treatment with CX-3543.
# as §5
# [7] = test system: DAOY medulloblastoma cells; assay: Apoptosis induction by Annexin V staining in DAOY cells; format: cell-based
# Method: as §6, §5
# [8] = test system: MCL-1 protein; assay: MCL-1 protein levels in cells contacted with compound; format: cell-based; conditions: expected from the mRNA and apoptosis results
# Method: as §5
smiles,measurement,setting,value
CN1CCC[C@H]1CCNC(=O)c1cn2c3c(c(N4CCC(c5cnccn5)C4)c(F)cc3c1=O)Oc1cc3ccccc3cc1-2 (stereo partly shown) [Compound A-1],binding to the MCL-1 sequence shown in FIG. 2,[1],binds
same,binding to extended MCL-1 sequence insert 46 compared to the wildtype sequence,[2],comparably higher
same,binding to extended MCL-1 sequence insert 58 compared to the wildtype sequence,[3],comparably higher
same,rank of Mcl-1 among genes with statistically significant change relative to DMSO control,"[4]; D556 cells, 1 μM, out of more than 500 genes",eighth most highly down-regulated gene
same,MCL-1 mRNA down-regulation,"[4]; D556 medulloblastoma cells, 1 uM",approximately 14 fold
same,MCL-1 mRNA down-regulation,[5],approximately 3.2 fold
same,"level of apoptosis induced, relative to DMSO-treated cells",[6]; D556 cells,about 5.5 fold
same,"apoptosis induction, D556 compared with DAOY",[6]; FIG. 4,greater effect of CX-3543 on D556 than on DAOY
same,"level of apoptosis induced, relative to DMSO-treated cells",[7],about 1.9 fold
same,MCL-1 protein levels,[8],decreased
